This passage reports IC50 results from patent US20220169654A1, “New Organic Compounds” (Servier Pharmaceuticals LLC, priority 2020, published 2022).

Molecules are shown by their SMILES.

One test relates to HCT116 MTAP−/−. Put plainly: Inhibition of cellular proliferation, 4 days, Cell Titer Glo, HCT116 MTAP−/−. It is filed as cell-based. To be noted: Homo sapiens, HCT-116, 96 h, IC50 bin with Max Inh., read-out: 4 Day Relative Growth Inhibition (MTAP −/−). Here is the method:
(§1) Test compound impact on cancer cell growth was assessed by treating cancer cells with compound for 4 days and then measuring proliferation using an ATP-based cell proliferation readout (Cell Titer Glo, Promega Corporation).
(§2) In a typical assay an isogenic pair of HCT116 human colon carcinoma cell lines which vary only in MTAP deletion status (HCT116 MTAP+/+ and HCT116 MTAP−/−) were plated in 96-well dishes at appropriate cell density. Following 24 hours, cells were then treated with the candidate MAT2A inhibitor. Prior to addition to cells, the compound was first serially diluted in 100% DMSO, typically as a 3-fold serial dilution starting at 500× top dose with 10 dose points including DMSO only control. Compound was then transferred to a working stock plate in cell culture media by adding 5 μL of compound in DMSO to 495 μL of cell culture media. This working stock was then added to cells via a further 5-fold dilution, by adding 25 μL of working stock to 100 μL of cells in culture media. Following compound addition, cells were incubated at 37° C./5% CO2 for 4 days.
(§3) To measure inhibition of cellular proliferation, cells were allowed to equilibrate to room temperature for 30 minutes, and were then treated with 125 μL of Cell Titer Glo reagent. The plate was then covered with aluminum foil and shaken for 15 minutes to ensure complete mixing and full cell lysis. Luminescent signal was then measured using a plate-based luminometer Veritas version 1.9.2 using ATP standard curve to confirm assay reproducibility from run to run. This luminescence measure was converted to a proliferation index by subtracting from each data point the ATP luminescence signal measured from a bank (no cells) well and dividing by the ATP luminescence signal measured in 0.2% DMSO control well adjusted for signal in blank well. Compound activity was then represented as a percentage change in proliferation relative to a within-plate DMSO control against log 10 of compound concentration in molar (M) units.
(§4) Specific compounds disclosed herein were tested in the foregoing assay and they were determined to inhibit cellular proliferation with an IC50. See, Table 1 below.
(In general: Cellular ATP, detected with luciferase, serves as a proxy for viable cell number.)

Another test concerns the target T1, MAT2A homodimer (Homo sapiens, UniProt P31153).
T1 construct: inferred from Ni sepharose purification with imidazole elution; made in house; host or cells: Sf9 insect cells, baculovirus (Bac to Bac, pFASTBAC1)
The experiment in a line: MAT2A inhibition (biochemical, liberated phosphate, PiColorLock Gold). To be noted: recombinant MAT2A homodimer; IC50 bin with Max Inh.; read-out: Enzyme Inhibition Bin. Summed up:
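Enzyme at 4 μg/mL and compound equilibrated 60 min at 25 °C, then 60 min reaction after adding substrate mix (500 μM ATP, 400 μM methionine). Released phosphate quantified by colorimetric kit against a phosphate standard curve to give IC50. Secondary format used 1 μg/mL enzyme with 5 h incubation.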

The subject of the next test is HCT116 MTAP+/+. The experiment in a line: Inhibition of cellular proliferation, 4 days, Cell Titer Glo, HCT116 MTAP+/+. Conditions: Homo sapiens, HCT-116, 96 h, IC50 bin with Max Inh., read-out: 4 Day Relative Growth Inhibition (MTAP +/+). It is filed as cell-based. Here is the method:
as §1, §2, §3, §4

For test [1], the system named is SAM in HCT116 human colon carcinoma cell line with MTAP gene deleted (MTAP −/−). Put plainly: Cellular assay of target engagement (SAM), LC-MS/MS, 72 hrs. Conditions: HCT-116, IC50 bin with Max Inh., read-out: Cell 72 h SAM Inhibition (MTAP −/−). It is filed as cell-based. Here is the method:
Measurement of MAT2A activity in cells was made by direct quantitation of the abundance of the product of its enzymatic activity, SAM. Cancer cells were treated with candidate MAT2A inhibitors for a suitable incubation period, and the cells were then lysed using a reagent which quenched any further enzyme activity. Soluble metabolites including SAM were collected and SAM itself was directly measured from the lysate using quantitative LC-MS/MS.
A typical assay was performed using an HCT116 human colon carcinoma cell line which was genetically engineered to delete the MTAP gene (commercially available from Horizon Discovery). This cell line was utilized because it was determined that loss of the MTAP gene predicts sensitivity to MAT2A inhibitors. Cells were plated in 96-well dishes at appropriate cell density. Following 24 hours, cells were then treated with the candidate MAT2A inhibitor. Prior to addition to cells, the compound was first serially diluted in 100% DMSO, typically as a 3-fold serial dilution starting at 500× top dose with 10 dose points including DMSO only control. Compound was then transferred to a working stock plate in cell culture media by adding 5 μL of compound in DMSO to 495 μL of cell culture media. This working stock was then added to cells via a further 5-fold dilution, by adding 25 μL of working stock to 100 μL of cells in culture media. Following compound addition, cells were incubated at 37° C./5% CO2 for 72 hrs.
To quantitate SAM levels following compound treatment, cells were gently washed once in ammonium carbonate buffer (75 mM at pH 7.4), placed on dry ice, and lysed with metabolite extraction buffer (80% cold methanol and 20% water (v/v) with acetic acid at 1M final concentration with 200 ng/mL deuterated d3-SAM as internal control). Following centrifugation at 4° C. at 3,200 rpm for 30 minutes, the supernatant was collected and stored at −80° C. until analysis by Liquid Chromatography with tandem Mass Spectrometry (LC-MS/MS). LC-MS/MS analysis was performed using an API6500 Mass Spectrometer (Sciex, Framingham, Mass., USA) operating in positive ion spray mode and equipped with a Waters UPLC Acquity (Waters, Milford, Mass., USA) BEH Amide column. Multiple Reaction Monitoring data was acquired for SAM and the d3-SAM standard, using a mass transition pair at m/z 399.2→250.1 and 402.2→250.1, respectively. In a typical LC-MS/MS analysis, the initial flow rate was 0.5 ml/min of 25% mobile phase A (acetonitrile and water at 5:95 (v/v) with 1% formic acid and 10 mM ammonium acetate) and 75% mobile phase B (acetonitrile and water at 95:5 (v/v) with 1% formic acid and 10 mM ammonium acetate), 0.2-0.5 minutes with 75%-35% mobile phase B, 25%-65% mobile phase A, at 0.5 min 65% mobile phase A and 35% mobile phase B, 1.0-1.1 minutes with 35%-75% mobile phase B, 65%-25% mobile phase A, at 1.1 min 25% mobile phase A and 75% mobile phase B with a total run time of 1.5 minutes.
Specific compounds disclosed herein were tested in the foregoing assay and they were determined to inhibit SAM with an IC50. See, Table 1 below.

T1 sequence (P31153 whole entry): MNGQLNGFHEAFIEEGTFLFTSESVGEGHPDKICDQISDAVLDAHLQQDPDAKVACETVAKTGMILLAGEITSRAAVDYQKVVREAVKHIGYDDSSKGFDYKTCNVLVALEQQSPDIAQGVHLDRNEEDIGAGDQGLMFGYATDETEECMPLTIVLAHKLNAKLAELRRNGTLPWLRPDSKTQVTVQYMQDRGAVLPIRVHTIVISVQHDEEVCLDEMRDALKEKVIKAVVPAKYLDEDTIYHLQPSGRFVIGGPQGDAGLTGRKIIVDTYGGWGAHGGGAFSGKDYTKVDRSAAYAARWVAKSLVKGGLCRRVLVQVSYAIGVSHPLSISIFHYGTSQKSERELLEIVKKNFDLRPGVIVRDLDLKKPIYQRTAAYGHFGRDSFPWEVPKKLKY

With `Cn1cc2cc(-n3nc4ccn(CC5CC5)c4c(-c4ccc(C(F)(F)F)nc4)c3=O)ccc2n1` [Example 118, 5-(cyclopropylmethyl)-2-(2-methyl-2H-indazol-5-yl)-4-(6-(trifluoromethyl)pyridin-3-yl)-2,5-dihydro-3H-pyrrolo[3,2-c]pyridazin-3-one], the IC50 with HCT116 MTAP−/− was less than 0.1 µM; at MAT2A homodimer, less than 0.1 µM; in the test with HCT116 MTAP+/+, greater than 1 µM; in test [1], less than 0.1 µM.
Take `Cn1cc2cc(-n3nc4c(C#N)cn(CC5CC5)c4c(-c4ccc(C(F)(F)F)nc4)c3=O)ccc2n1` [Example 119, 5-(cyclopropylmethyl)-2-(2-methyl-2H-indazol-5-yl)-3-oxo-4-(6-(trifluoromethyl)pyridin-3-yl)-3,5-dihydro-2H-pyrrolo[3,2-c]pyridazine-7-carbonitrile]: the IC50 was greater than 1 µM in the test with HCT116 MTAP−/−, less than 0.1 µM at MAT2A homodimer, greater than 1 µM in the test with HCT116 MTAP+/+ and greater than 1 µM in test [1].
For `Cn1cc2cc(-n3nc4c(C#N)cn(CC5CC5)c4c(-c4ccc(C5(C#N)CC5)nc4)c3=O)ccc2n1` [Example 120, 4-(6-(1-cyanocyclopropyl)pyridin-3-yl)-5-(cyclopropylmethyl)-2-(2-methyl-2H-indazol-5-yl)-3-oxo-3,5-dihydro-2H-pyrrolo[3,2-c]pyridazine-7-carbonitrile], the IC50 with HCT116 MTAP−/− was greater than 1 µM; on MAT2A homodimer it was less than 0.1 µM; in the test on HCT116 MTAP+/+, greater than 1 µM; in test [1], 0.1 to 1 µM.
With `[2H]C([2H])([2H])Oc1ccc(-n2nc3ccn(CC4CC4)c3c(-c3ccc(C4CC4)nc3)c2=O)cc1` [Example 122, 5-(cyclopropylmethyl)-4-(6-cyclopropylpyridin-3-yl)-2-(4-(methoxy-d3)phenyl)-2,5-dihydro-3H-pyrrolo[3,2-c]pyridazin-3-one], the IC50 in the test with HCT116 MTAP−/− was less than 0.1 µM; at MAT2A homodimer, less than 0.1 µM; in the test on HCT116 MTAP+/+, greater than 1 µM; in test [1], less than 0.1 µM.
As to `Cn1cc2cc(-n3nc4ccn(CC5CC5)c4c(-c4ccc(C(F)F)nc4)c3=O)ccc2n1` [Example 123, 5-(cyclopropylmethyl)-4-(6-(difluoromethyl)pyridin-3-yl)-2-(2-methyl-2H-indazol-5-yl)-2,5-dihydro-3H-pyrrolo[3,2-c]pyridazin-3-one], the IC50 in the test on HCT116 MTAP−/− was less than 0.1 µM; at MAT2A homodimer, less than 0.1 µM; with HCT116 MTAP+/+, 0.1 to 1 µM; in test [1], less than 0.1 µM.
On to `[2H]C([2H])([2H])Oc1ccc(-n2nc3c(C#N)cn(CC4CC4)c3c(-c3ccc(C4CC4)nc3)c2=O)cc1` [Example 124, 5-(cyclopropylmethyl)-4-(6-cyclopropylpyridin-3-yl)-2-(4-(methoxy-d3)phenyl)-3-oxo-3,5-dihydro-2H-pyrrolo[3,2-c]pyridazine-7-carbonitrile], for which the IC50 in the test on HCT116 MTAP−/− was 0.1 to 1 µM; on MAT2A homodimer, less than 0.1 µM; in the test with HCT116 MTAP+/+, greater than 1 µM; in test [1] it was less than 0.1 µM.
Regarding `CCCn1cc(C#N)c2nn(-c3ccc4nn(C)cc4c3)c(=O)c(-c3ccc(C4CC4)nc3)c21` [Example 127, 4-(6-cyclopropylpyridin-3-yl)-2-(2-methyl-2H-indazol-5-yl)-3-oxo-5-propyl-3,5-dihydro-2H-pyrrolo[3,2-c]pyridazine-7-carbonitrile], the IC50 with HCT116 MTAP−/− is 0.1 to 1 µM; at MAT2A homodimer, less than 0.1 µM; in the test on HCT116 MTAP+/+ it was greater than 1 µM; in test [1] it was less than 0.1 µM.
On to `CC(C)c1ccc(-c2c(=O)n(-c3ccc4nn(C)cc4c3)nc3c(C#N)cn(CC4CC4)c23)cn1` [Example 128, 5-(cyclopropylmethyl)-4-(6-isopropylpyridin-3-yl)-2-(2-methyl-2H-indazol-5-yl)-3-oxo-3,5-dihydro-2H-pyrrolo[3,2-c]pyridazine-7-carbonitrile], for which the IC50 is 0.1 to 1 µM in the test on HCT116 MTAP−/−, less than 0.1 µM at MAT2A homodimer, greater than 1 µM in the test with HCT116 MTAP+/+ and less than 0.1 µM in test [1].
